Values after ≈ are worked out from the molar mass of the structure shown. Values joined by “and” are separate entries in the source; they are usually repeats but may differ in a detail not shown here. Equal values may be shown once. Read-outs that look alike come from different tables or passages of the source.
What was measured:
MCF-7 cells = test: Cytotoxicity to MCF-7 cells with or without 25 μM dicoumarol (sulforhodamine B assay); format: cell-based, human; settings: for IC50: Homo sapiens; for Fold Protection of MCF7 cells w/ 25 μM dicoumarol: Table 1
Procedure: The NQO1-dependent cytotoxicity of the first set of derivatives was determined in MCF-7 cells which express high levels of NQO1. Cells were exposed to DNQ for 2 hours in the presence or absence of 25 μM DIC. The media was then removed and cells were washed once with media then fresh media was added and the cells were incubated for 72 hours. Cell death was assessed using the sulforhodamine B assay previously described. […] Substitution off the nitrogen appeared well tolerated (4-14 and 4-15).
The DNQ derivatives synthesized were assayed for their toxicity to MCF-7 cells with or without DIC. The data from these experiments is organized in Table 4.2. […] This tolerance of sterically-demanding substituents corresponds with a flexible and promiscuous NQO1 active site. The poor activity of hydroxyl derivative 4-41 may be a result of either poor binding with the largely hydrophobic NQO1 active site or with an excessively strong substrate-enzyme interaction because of hydrogen bonding.

NQO1 = NQO1 (Homo sapiens, UniProt P15559); test: NQO1 enzymatic measurements in vitro; format: biochemical; settings: 1 μM substrate
Procedure: As further evidence that the activity of these DNQ derivatives is dependent on their ability to be reduced by NQO1, full enzymatic measurements in vitro were performed. We found a strong correlation between catalytic efficiency of substrates in vitro and their cell culture toxicity. […] This provides strong evidence that the cytotoxicity of DNQ and its derivatives are dependent primarily upon the activity of NQO1 within the cell.

[1] = Aqueous solubility in pH 7.4 PBS by LC-MS; format: physicochemical; settings: phosphate buffered saline, pH 7.4, aqueous buffer, thermodynamic from solid, PBS pH 7.4; Table 4.3
Procedure: The aqueous solubility of DNQ at pH 7.4 in phosphate buffered saline (PBS) was measured by LC-MS. DNQ was sonicated for 30 minutes in PBS then undissolved solid was removed by filtration through a 0.45 μm syringe filter and the filtrate was analyzed by LC-MS (λ=275 nm, ESI-TOF in negative mode). The optimal sonication time was determined by sonicating DNQ for 1, 5, 10, and 30 minutes. While the concentration of DNQ in solution increased substantially between 1, 5, and 10 minutes, there was only a minor difference between 10 and 30 minutes. During the 30 minute sonication the water bath warmed to 45° C. (samples were cooled to room temperature before filtration). A calibration curve was generated from 1-100 μM by dissolving DNQ in methanol to a concentration of 500 μM and making dilutions of this stock in 80:20 water:methanol. The calibration curve (measure by UV absorbance) was linear over this range; 1 μM was approximately the limit of detection. […] The solution was very pale yellow.
The aqueous solubility of the compounds was determined by an LC-MS assay as described in the specification above. We applied the calibration curve generated for DNQ to the derivatives under the assumption that the UV profile of the derivatives of DNQ would be similar to that of DNQ.
After sonication and filtration most of the aqueous solutions were colorless. The solutions of DNQ, 4-31, and 4-37 were faintly yellow while 4-8, 4-14 and 4-41 were substantially more colored. The solution of 4-8, 4-14 and 4-41 were diluted 10-fold with PBS prior to LC-MS analysis to ensure that the concentrations fell within the range of the calibration curve.

[2] = Solubility in 20% HPβCD solution (pH modulation protocol); format: physicochemical; settings: 20% HPβCD in pH 7.4 PBS, pH 7.4, aqueous with cosolvent or surfactant or cyclodextrin, thermodynamic from solid; 20% HPβCD; Table 4.3
Procedure: The protocol for formulating DNQ compounds in HPβCD is as follows: the DNQ compound is slurried in a 20% solution of HPβCD in pH 7.4 PBS and the pH is then increased by the addition of 10 M NaOH to induce dissolution of the DNQ compound. The pH is returned to pH 7.5-8.0 by the careful addition of 1 M HCl. A 3.3 mM solution of the DNQ compound can be made by this method which is stable at least 24 hours. This represents a 30-fold increase in solubility of DNQ over PBS alone.
Although we were pleased to find active derivatives of DNQ that were up to 4-fold more soluble in water—sufficiently soluble for continuous IV infusion for human administration—this level of solubility was insufficient for animal studies by bolus injection. […] We used the same pH modulation protocol outlined for DNQ described in the specification above. The results are organized in Table 4.3 and FIG. 8. While all compounds were more soluble in HPβCD than in buffer alone, the fold increase in solubility varied widely.

[3] = Solubility in organic solvents; format: physicochemical; settings: for solubility: organic solvent or mixture, thermodynamic from solid
Procedure: The solubility of DNQ derivatives in organic solvents was determined by measuring the amount of a given solvent required to dissolve a known amount of compound. Solvent was added to the compound in 50 μL aliquots and the slurry was sonicated. […] Solubility was assessed in DMSO, dichloromethane, and 33% methanol in dichloromethane (FIGS. 9, 10, and 11, respectively).

[4] = Maximum tolerated dose in mice; settings: mouse, in vivo, ip
From the text: Because of the difficulty of repeated tail vein injections in mice, our group is using IP administration of compound.
All of these derivatives are currently being assessed for their maximum tolerated dose (MTD) in healthy mice. Compounds are formulated in HPβCD and delivered by IP injection to two mice once daily for five days.

[5] = Solubility in organic solvents; format: physicochemical; settings: organic solvent or mixture, thermodynamic from solid; THF; Table 1
[6] = MCF7, Table 1, read-out: MCF7 IC50
[7] = MCF7, Table 4.2, no DIC, ± s.e., read-out: IC50 vs. MCF-7 cells
[8] = MCF7, classification in figure legends of FIGS. 7-11, read-out: IC50 ("active" / generally "inactive" compounds)
[9] = MCF7, read-out: IC50 vs. MCF-7 cells +25 μM DIC, Table 4.2, +25 μM DIC, ± s.e.
[10] = 2:1 CH2Cl2:MeOH, Table 4.3, read-out: Solubility in 2:1 CH2Cl2:MeOH
[11] = CH2Cl2:MeOH 2:1, Table 1, read-out: CH2Cl2:MeOH 2:1 solubility
[12] = CH2Cl2, Table 1, read-out: CH2Cl2 solubility
[13] = DMSO, Table 1, read-out: DMSO solubility

NQO1, sequence (P15559 whole entry): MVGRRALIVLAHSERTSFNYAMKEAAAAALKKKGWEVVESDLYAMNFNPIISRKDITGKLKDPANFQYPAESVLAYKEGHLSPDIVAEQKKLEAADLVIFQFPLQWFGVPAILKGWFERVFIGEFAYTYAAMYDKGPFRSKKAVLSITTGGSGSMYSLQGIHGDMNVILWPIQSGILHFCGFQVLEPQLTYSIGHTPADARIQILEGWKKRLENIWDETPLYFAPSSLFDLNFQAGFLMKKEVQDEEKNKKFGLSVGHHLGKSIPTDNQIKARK

Structure (SMILES)	IC50 (MCF-7 cells; [6]) [nM]	IC50 (MCF-7 cells; [7]) [nM]	IC50 (MCF-7 cells; [8]) [nM]	IC50 (MCF-7 cells; [9]) [nM]	Fold Protection of MCF7 cells w/ 25 μM dicoumarol (MCF-7 cells)	Fold protection by DIC (MCF-7 cells; Table 4.2)	NQO1 Initial Velocity @ 1 μM (NQO1)	solubility at 30 min [1] [µM]	solubility [2] [mM]	Solubility in CH2Cl2 ([3]; CH2Cl2, Table 4.3) [mM]	Solubility in DMSO ([3]; DMSO, Table 4.3) [mM]	solubility [3, 10] [mM]	solubility [3, 11] [mM]	solubility [3, 12] [mM]	solubility [3, 13] [mM]	MTD at 5 days [4]	solubility [5] [mM]	also measured
CCCCCCn1c2c(c(C)cc1=O)C(=O)c1c(C)cc(=O)[nH]c1C2=O [Compound 9-257]	260 ± 40	290 ± 40	< 500	3000 ± 600	11	10	1850 ± 60	< 5	6 (≈ 2130 µg/mL)	32 (≈ 11300 µg/mL)	18 (≈ 6380 µg/mL)	140 (≈ 49600 µg/mL)	140 (≈ 49600 µg/mL)	32 (≈ 11300 µg/mL)	18 (≈ 6380 µg/mL)	≥ 16 mg/kg and ≥ 44 µmol/kg	27 (≈ 9570 µg/mL)	
CCCn1c2c(c(C)cc1=O)C(=O)c1c(C)cc(=O)[nH]c1C2=O [Compound 10-41]	120 ± 10		< 500		10		1590 ± 70	39 (≈ 12.2 µg/mL)	6.3 (≈ 1970 µg/mL)	3.9 (≈ 1220 µg/mL)	8.9 (≈ 2780 µg/mL)	32 (≈ 9990 µg/mL)	32 (≈ 9990 µg/mL)	3.9 (≈ 1220 µg/mL)	8.9 (≈ 2780 µg/mL)	≥ 14 mg/kg and ≥ 44 µmol/kg	3.4 (≈ 1060 µg/mL)	IC50 (MCF-7 cells; MCF7, 2 h, Table 4.1, 2 h exposure, no DIC, ± s.e., read-out: IC50 vs. MCF-7 cells): 130 ± 10 nM; IC50 (MCF-7 cells; MCF7, read-out: IC50 vs. MCF-7 cells +25 μM DIC, Table 4.1, +25 μM DIC, ± s.e.): 1300 ± 400 nM; Fold protection by DIC (MCF-7 cells; Table 4.1): 10
CCCCCn1c2c(c(C)cc1=O)C(=O)c1c(C)cc(=O)[nH]c1C2=O [Compound 9-255]	190 ± 10	200 ± 10	< 500	2000 ± 900	11	10	1700 ± 40	< 5	5 (≈ 1700 µg/mL)	22 (≈ 7490 µg/mL)	17 (≈ 5790 µg/mL)	95 (≈ 32300 µg/mL)	95 (≈ 32300 µg/mL)	22 (≈ 7490 µg/mL)	17 (≈ 5790 µg/mL)	≥ 15 mg/kg and ≥ 44 µmol/kg	16 (≈ 5450 µg/mL)	
Cc1cc(=O)[nH]c2c1C(=O)c1c(C)cc(=O)n(CCC(C)C)c1C2=O [Compound 9-249]	150 ± 30	180 ± 30	< 500	1800 ± 500	12	10	2100 ± 90	6 (≈ 2.04 µg/mL)	4.7 (≈ 1600 µg/mL)	9.7 (≈ 3300 µg/mL)	8.6 (≈ 2930 µg/mL)	58 (≈ 19700 µg/mL)	58 (≈ 19700 µg/mL)	9.7 (≈ 3300 µg/mL)	8.6 (≈ 2930 µg/mL)	15 mg/kg and 44 µmol/kg	8.8 (≈ 3000 µg/mL)	
CCCCCCCn1c2c(c(C)cc1=O)C(=O)c1c(C)cc(=O)[nH]c1C2=O [Compound 4-25]		420 ± 110	< 500	4500 ± 400		11		< 5	3 (≈ 1110 µg/mL)									solubility ([3]; CH2Cl2, Table 4.3, read-out: Solubility in CH2Cl2): 30 mM (≈ 11100 µg/mL); solubility ([3]; DMSO, Table 4.3, read-out: Solubility in DMSO): 13 mM (≈ 4790 µg/mL)
